Source: US20190167593A1, “C[…] PHARMACEUTICALLY ACCEPTABLE SALT THEREOF, AND APPLICATION OF SAME” (priority 2016, published 2019)
≈ marks a conversion by molar mass, not a printed value. Like-named read-outs stand apart in the source and are kept apart here.

What was measured:
[1] = physchem; format: physicochemical; details: molar ratio compound:acid as listed per salt
[2] = test system: A/Puerto Rico/8/34 (H1N1) (PR8); assay: organism not typed; format: cell-based; details: MDCK cells, crystal violet staining, 3 days, read-out: IC50 against influenza virus replication (plaque formation), PR8
[3] = test system: influenza virus PR8; details: mouse, in vivo
[4] = physchem; format: physicochemical; details: Non-lactic acid

Row | Compound | PH VALUE OF THE SOLUTION [1] | solubility ([1]; water, unit printed in b135 only) | IC50 ([2]; listed as COMPOUND TO BE TESTED OF FORMULA I) | IC50 ([2]; MDCK, 72 h) | body weight [3] | pH VALUE [4] | solubility ([4]; pH 7.8) | IC50 ([2]; phosphate) | disease symptoms [3] | IC50 [2]
1 | CCCCS(=O)(=O)N[C@@H]1CCCN([C@@H]2C=C(C(=O)O)C[C@H](NC(=N)N)[C@H]2NC(C)=O)C1 [(3R,4R,5S)-4-acetamido-5-guanidino-3-((3R)-3-n-butylsulfonamidopiperidin)-1-cyclohexene-1-carboxylic acid] | 7.8 | 2500 µg/mL | 252 nM | 250 nM | slightly decreased | 7.8 | 2500 µg/mL (≈ 5.45 mM) | – | – | –
2 | CCOC(=O)C1=C[C@@H](OC(CC)CC)[C@H](NC(C)=O)[C@@H](N)C1.O=P(O)(O)O [Oseltamivir phosphate, ethyl (3R, 4R, 5S)-4-acetamido-5-amino-3-(1-ethylpropoxy)-1-cyclohexene-1-carboxylate phosphate] | – | – | – | 130 nM | – | – | – | 133 nM | obvious disease symptoms | –
3 | Peramivir | – | – | – | – | – | – | – | – | – | 17.6 nM
